Experimental data from PubChem BioAssay (NCI).
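Assay format: 96-well plates, 48-hour exposure. Here, GI50 denotes the concentration required for 50% inhibition of growth. TGI: total growth inhibition.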

Tests used:
Experiment in all cases: NCI anticancer screen, dose series, 48 h
[1] = system: ACHN renal
[2] = system: HL-60(TB) leukemia
[3] = system: NCI-H522 lung
[4] = system: U251 CNS
[5] = system: SW-620 colon
[6] = system: SR leukemia
[7] = system: SN12C renal
[8] = system: DU-145 prostate
[9] = system: NCI-H460 lung
[10] = system: HOP-62 NSCLC
[11] = system: TK-10 renal
[12] = system: UACC-62 melanoma
[13] = system: UO-31 renal
[14] = system: A498 renal
[15] = system: CCRF-CEM leukemia
[16] = system: BT-549 breast
[17] = system: LOX IMVI melanoma
[18] = system: A549 NSCLC
[19] = system: SK-MEL-28 melanoma
[20] = system: 786-0 renal
[21] = system: PC-3 prostate
[22] = system: MOLT-4 leukemia
[23] = system: MDA-MB-231 breast
[24] = system: T-47D breast
[25] = system: SF-295 CNS
[26] = system: CAKI-1 renal
[27] = system: OVCAR-5 ovarian
[28] = system: SF-539 CNS
[29] = system: HT29 colon
[30] = system: SNB-75 CNS
[31] = system: RXF 393 renal
[32] = system: NCI-H23 lung
[33] = system: MALME-3M melanoma
[34] = system: OVCAR-8 ovarian
[35] = system: K-562 leukemia
[36] = system: OVCAR-3 ovarian
[37] = system: SK-MEL-5 melanoma
[38] = system: COLO 205 colon
[39] = system: IGROV1 ovarian
[40] = system: SK-OV-3 ovarian
[41] = system: SF-268 CNS
[42] = system: OVCAR-4 ovarian
[43] = system: M14 melanoma
[44] = system: HOP-92 NSCLC
[45] = system: HCC-2998 colon
[46] = system: RPMI-8226 leukemia
[47] = system: NCI/ADR-RES ovarian
[48] = system: HCT-116 colon
[49] = system: NCI-H226 lung
[50] = system: MCF7 breast
[51] = system: HCT-15 colon
[52] = system: KM12 colon
[53] = system: UACC-257 melanoma
[54] = system: HS 578T breast
[55] = system: SK-MEL-2 melanoma
[56] = system: SNB-19 CNS
[57] = system: MDA-MB-435
[58] = system: EKVX NSCLC

COc1cc2c(cc1OCCCCCOc1ccc(-n3c(C)nc4ccccc4c3=O)cc1)N=C[C@@H]1CCCN1C2=O
GI50 [1]: 342 nM | TGI [1]: 1530 nM | GI50 [2]: 340 nM | TGI [2]: 1300 nM | GI50 [3]: 204 nM | TGI [3]: 958 nM | GI50 [4]: 231 nM | TGI [4]: 759 nM | GI50 [5]: 323 nM | TGI [5]: 2800 nM | GI50 [6]: 110 nM | TGI [6]: 393 nM | GI50 [7]: 264 nM | TGI [7]: 3380 nM | GI50 [8]: 410 nM | TGI [8]: 3740 nM | GI50 [9]: 248 nM | TGI [9]: 691 nM | GI50 [10]: 230 nM | TGI [10]: 524 nM | GI50 [11]: 320 nM | TGI [11]: 867 nM | GI50 [12]: 171 nM | TGI [12]: 336 nM | GI50 [13]: 336 nM | TGI [13]: 1710 nM | GI50 [14]: 214 nM | TGI [14]: 543 nM | GI50 [15]: 210 nM | TGI [15]: 588 nM | GI50 [16]: 137 nM | TGI [16]: 340 nM | GI50 [17]: 176 nM | TGI [17]: 447 nM | GI50 [18]: 276 nM | TGI [18]: 982 nM | GI50 [19]: 270 nM | TGI [19]: 853 nM | GI50 [20]: 157 nM | TGI [20]: 360 nM | GI50 [21]: 340 nM | TGI [21]: 2890 nM | GI50 [22]: 196 nM | TGI [22]: 500 nM | GI50 [23]: 188 nM | TGI [23]: 636 nM | GI50 [24]: 324 nM | GI50 [25]: 391 nM | TGI [25]: 1830 nM | GI50 [26]: 275 nM | TGI [26]: 1020 nM | GI50 [27]: 281 nM | TGI [27]: 678 nM | GI50 [28]: 285 nM | TGI [28]: 728 nM | GI50 [29]: 317 nM | TGI [29]: > 100000 nM | GI50 [30]: 408 nM | TGI [30]: 3430 nM | GI50 [31]: 210 nM | TGI [31]: 390 nM | GI50 [32]: 226 nM | TGI [32]: 528 nM | GI50 [33]: 236 nM | TGI [33]: 585 nM | GI50 [34]: 363 nM | TGI [34]: 3000 nM | GI50 [35]: 164 nM | GI50 [36]: 346 nM | TGI [36]: 15500 nM | GI50 [37]: 176 nM | TGI [37]: 353 nM | GI50 [38]: 165 nM | TGI [38]: 370 nM | GI50 [39]: 182 nM | TGI [39]: 640 nM | GI50 [40]: 410 nM | TGI [40]: 1890 nM | GI50 [41]: 376 nM | GI50 [42]: 515 nM | TGI [42]: 13200 nM | GI50 [43]: 180 nM | TGI [43]: 375 nM | GI50 [44]: 394 nM | TGI [44]: 7380 nM | GI50 [45]: 256 nM | TGI [45]: 685 nM | GI50 [46]: 204 nM | TGI [46]: 545 nM | GI50 [47]: 1960 nM | TGI [47]: 6310 nM | GI50 [48]: 167 nM | TGI [48]: 327 nM | GI50 [49]: 214 nM | TGI [49]: 466 nM | GI50 [50]: 271 nM | TGI [50]: 1300 nM | GI50 [51]: 1130 nM | TGI [51]: 3900 nM | GI50 [52]: 173 nM | TGI [52]: 362 nM | GI50 [53]: 434 nM | TGI [53]: 1480 nM | GI50 [54]: 232 nM | TGI [54]: 880 nM | GI50 [55]: 377 nM | TGI [55]: 1250 nM | GI50 [56]: 1000 nM | GI50 [57]: 184 nM | TGI [57]: 390 nM | GI50 [58]: 778 nM | TGI [58]: 4770 nM
